# Measured values: US20100152434A1, “Protein Kinase-binding Nucleosides and Associated Methods” (priority 2007, published 2010)
# Where two headings read alike, the source gives them in different places.
# Legend:
# COLO 205 = test: cells; conditions: Homo sapiens, COLO 205
# 788-0 [1] = conditions: 786-0
# OVCAR-3 = test: cells; conditions: Homo sapiens, OVCAR-3
# SK-MEL-5 = test: cells; conditions: Homo sapiens, SK-MEL-5
# EKVX [2] = system: EKVX
# 788-0 [3] = test: cells; conditions: Homo sapiens, 786-0
# UO-31 = test: cells; conditions: Homo sapiens, UO-31
# HOP-62 = conditions: HOP-52
# HCC-2998 = conditions: HCC-2993
# CCRF-CEM [4] = system: CCRF-CEM
# SF-268 [5] = system: SF-268
# CCRF-CEM [6] = test: cells; conditions: Homo sapiens
# MCF7 = test: cells; conditions: Homo sapiens, MCF7
# EKVX [7] = test: cells; conditions: Homo sapiens
# SF-268 [8] = test: cells; conditions: Homo sapiens, SF-268
# RXF 393 = conditions: RXF 393
# LOX IMVI [9] = test: cells; conditions: Homo sapiens
# SF-539 = test: cells; conditions: Homo sapiens, SF-539
# OVCAR-8 = test: cells; conditions: Homo sapiens, OVCAR-8
# SN12C = test: cells; conditions: Homo sapiens
# LOX IMVI [10] = system: LOX IMVI
# [11] = Log10 Concentration −4.0, Molar
# [12] = Log10 Concentration −5.0, Molar
# [13] = Log10 Concentration −6.0, Molar
# [14] = Log10 Concentration −7.0, Molar
# [15] = Log10 Concentration −8.0, Molar
structure (smiles),measurement,setting,value
"CNC(=O)NC[C@H]1O[C@@H](n2cnc3c(NC(=O)Nc4ccccc4)ncnc32)C(O[Si](C)(C)C(C)(C)C)[C@H]1O[Si](C)(C)C(C)(C)C (some centres unmarked) [Compound 25, 2′,3′-Bis-O-(tert-butyldimethylsilyl)-5-deoxy-5′-[(N-methylcarbamoyl)amino]-N^6-(N-phenylcarbamoyl)adenosine]",GI50,COLO 205,1.59 µM
same,IC50,COLO 205,5.98 µM
same,TGI,788-0 [1],3.71E−6 Molar
same,Percent Growth,788-0 [1]; Log10 Concentration −4.0 Molar,−80%
same,Percent Growth,788-0 [1]; Log10 Concentration −5.0 Molar,−83%
same,Percent Growth,788-0 [1]; Log10 Concentration −6.0 Molar,110%
same,Percent Growth,788-0 [1]; Log10 Concentration −7.0 Molar,113%
same,Percent Growth,788-0 [1]; Log10 Concentration −8.0 Molar,103%
same,GI50,OVCAR-3,2.6 µM
same,IC50,OVCAR-3,98.2 µM
same,TGI,NCI-H23,9.07E−6 Molar
same,Percent Growth,NCI-H23; [11],−53%
same,Percent Growth,NCI-H23; [12],−5%
same,Percent Growth,NCI-H23; [13],105%
same,Percent Growth,NCI-H23; [14],106%
same,Percent Growth,NCI-H23; [15],100%
same,GI50,SK-MEL-5,1.98 µM
same,IC50,SK-MEL-5,13.6 µM
same,TGI,EKVX [2],3.06E−5 Molar
same,Percent Growth,EKVX [2]; [11],−9%
same,Percent Growth,EKVX [2]; [12],9%
same,Percent Growth,EKVX [2]; [13],104%
same,Percent Growth,EKVX [2]; [14],111%
same,Percent Growth,EKVX [2]; [15],106%
same,GI50,788-0 [3],2.04 µM
same,IC50,788-0 [3],6.75 µM
same,TGI,DU-145,5.71E−6 Molar
same,Percent Growth,DU-145; [11],−89%
same,Percent Growth,DU-145; [12],−35%
same,Percent Growth,DU-145; [13],109%
same,Percent Growth,DU-145; [14],107%
same,Percent Growth,DU-145; [15],103%
same,GI50,UO-31,2.5 µM
same,IC50,UO-31,> 100 µM
same,TGI,HOP-62,1.71E−5 Molar
same,Percent Growth,HOP-62; Log10 Concentration −4.0 Molar,−55%
same,Percent Growth,HOP-62; Log10 Concentration −5.0 Molar,25%
same,Percent Growth,HOP-62; Log10 Concentration −6.0 Molar,105%
same,Percent Growth,HOP-62; Log10 Concentration −7.0 Molar,108%
same,Percent Growth,HOP-62; Log10 Concentration −8.0 Molar,102%
same,TGI,CAKI-1,7.93E−6 Molar
same,Percent Growth,CAKI-1; [11],−33%
same,Percent Growth,CAKI-1; [12],−11%
same,Percent Growth,CAKI-1; [13],96%
same,Percent Growth,CAKI-1; [14],99%
same,Percent Growth,CAKI-1; [15],100%
same,TGI,HCC-2998,3.75E−6 Molar
same,Percent Growth,HCC-2998; Log10 Concentration −4.0 Molar,−91%
same,Percent Growth,HCC-2998; Log10 Concentration −5.0 Molar,−79%
same,Percent Growth,HCC-2998; Log10 Concentration −6.0 Molar,106%
same,Percent Growth,HCC-2998; Log10 Concentration −7.0 Molar,93%
same,Percent Growth,HCC-2998; Log10 Concentration −8.0 Molar,100%
same,TGI,MALME-3M,9.84E−6 Molar
same,Percent Growth,MALME-3M; [11],−48%
same,Percent Growth,MALME-3M; [12],−1%
same,Percent Growth,MALME-3M; [13],96%
same,Percent Growth,MALME-3M; [14],88%
same,Percent Growth,MALME-3M; [15],105%
same,TGI,CCRF-CEM [4],>1.00E−4 Molar
same,Percent Growth,CCRF-CEM [4]; [11],4%
same,Percent Growth,CCRF-CEM [4]; [12],9%
same,Percent Growth,CCRF-CEM [4]; [13],101%
same,Percent Growth,CCRF-CEM [4]; [14],109%
same,Percent Growth,CCRF-CEM [4]; [15],104%
same,TGI,SF-268 [5],1.40E−5 Molar
same,Percent Growth,SF-268 [5]; [11],45%
same,Percent Growth,SF-268 [5]; [12],8%
same,Percent Growth,SF-268 [5]; [13],102%
same,Percent Growth,SF-268 [5]; [14],106%
same,Percent Growth,SF-268 [5]; [15],104%
same,GI50,CCRF-CEM [6],3.59 µM
same,IC50,CCRF-CEM [6],> 100 µM
same,GI50,MCF7,2.69 µM
same,IC50,MCF7,> 100 µM
same,GI50,EKVX [7],3.7 µM
same,IC50,EKVX [7],> 100 µM
same,GI50,SF-268 [8],3.58 µM
same,IC50,SF-268 [8],> 100 µM
same,TGI,NCI-H226,3.63E−6 Molar
same,Percent Growth,NCI-H226; [11],−48%
same,Percent Growth,NCI-H226; [12],−7%
same,Percent Growth,NCI-H226; [13],105%
same,Percent Growth,NCI-H226; [14],106%
same,Percent Growth,NCI-H226; [15],102%
same,TGI,RXF 393,4.01E−6 Molar
same,Percent Growth,RXF 393; [11],−77%
same,Percent Growth,RXF 393; [12],−73%
same,Percent Growth,RXF 393; [13],111%
same,Percent Growth,RXF 393; [14],73%
same,Percent Growth,RXF 393; [15],96%
same,GI50,LOX IMVI [9],1.82 µM
same,IC50,LOX IMVI [9],62.1 µM
same,GI50,SF-539,3.07 µM
same,IC50,SF-539,94.3 µM
same,GI50,OVCAR-8,4.01 µM
same,IC50,OVCAR-8,> 100 µM
same,TGI,SK-MEL-2,5.54E−6 Molar
same,Percent Growth,SK-MEL-2; [11],−67%
same,Percent Growth,SK-MEL-2; [12],−35%
same,Percent Growth,SK-MEL-2; [13],105%
same,Percent Growth,SK-MEL-2; [14],110%
same,Percent Growth,SK-MEL-2; [15],106%
same,GI50,SN12C,1.81 µM
same,IC50,SN12C,6.29 µM
same,TGI,LOX IMVI [10],3.36E−6 Molar
same,Percent Growth,LOX IMVI [10]; [11],−77%
same,Percent Growth,LOX IMVI [10]; [12],−89%
same,Percent Growth,LOX IMVI [10]; [13],98%
same,Percent Growth,LOX IMVI [10]; [14],101%
same,Percent Growth,LOX IMVI [10]; [15],102%
